According to the supplement of paper PMC11061612:

How the values were obtained:
[1] = tested on: CAL-62 (Thyroid Gland Carcinoma); assay: Bliss excess, mean over the matrix (fraction); higher = more synergy
How it was run: (§1)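 Bliss excess equals the observed combination effect minus the expected value EA + EB − EA·EB, where EA and EB are the effects of each agent alone. Combination Emax is the second-highest inhibition within the matrix. Inhibition was scaled from CellTiter-Glo 2.0 luminescence, with 0 set by vehicle wells and 1 by blank wells, after 72 hours of two-drug dosing of cells plated in 1536-well plates.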

IST-MES1 (Mesothelioma) [2] = assay: as above
How it was run: as §1

[3] = tested on: PC-3_[JPC-3] (Lung Adenocarcinoma); assay: as above
How it was run: as §1

[4] = tested on: RKN (Other Solid Carcinomas); assay: as above
How it was run: as §1

[5] = tested on: CAL-62 (Thyroid Gland Carcinoma); assay: combination Emax (second highest fraction inhibited in the dose matrix, 72 h); higher = more inhibition; extreme values may be limits of the assay
How it was run: as §1

[6] = tested on: HSC-39 (Gastric Carcinoma); assay: as above
How it was run: as §1

IST-MES1 (Mesothelioma) [7] = assay: as above
How it was run: as §1

[8] = tested on: L-1236 (Hodgkin's Lymphoma); assay: as above
How it was run: as §1

[9] = tested on: MKN45 (Gastric Carcinoma); assay: as above
How it was run: as §1

[10] = tested on: OPM-2 (Plasma Cell Myeloma); assay: as above
How it was run: as §1

[11] = tested on: PANC-03-27 (Pancreatic Carcinoma); assay: as above
How it was run: as §1

[12] = tested on: PC-3_[JPC-3] (Lung Adenocarcinoma); assay: as above
How it was run: as §1

[13] = tested on: PSN1 (Pancreatic Carcinoma); assay: as above
How it was run: as §1

[14] = tested on: RCM-1 (Colorectal Carcinoma); assay: as above
How it was run: as §1

SF539 (Glioblastoma) = assay: as above
How it was run: as §1

[15] = tested on: SHP-77 (Small Cell Lung Carcinoma); assay: as above
How it was run: as §1

SK-MEL-2 (Melanoma) = assay: as above
How it was run: as §1

[16] = tested on: SK-PN-DW (Other Solid Carcinomas); assay: as above
How it was run: as §1

[17] = tested on: TE-8 (Esophageal Squamous Cell Carcinoma); assay: as above
How it was run: as §1

[18] = tested on: VAL (B-Cell Non-Hodgkin's Lymphoma); assay: as above
How it was run: as §1

## C[C@@H](Oc1cc(-c2cnn(C3CCNCC3)c2)cnc1N)c1c(Cl)ccc(F)c1Cl [Crizotinib] + CC1=C(C(=CC=C1)Cl)NC(=O)C2=CN=C(S2)NC3=CC(=NC(=N3)C)N4CCN(CC4)CCO [Dasatinib] (first compound max 10 µM, 7x7, partner max 2 µM)
[1]
  Bliss excess: 0.0464
IST-MES1 (Mesothelioma) [2]
  Bliss excess: -0.0152
[3]
  Bliss excess: -0.0005
[4]
  Bliss excess: 0.0179
[5]
  combination Emax: 0.677
[6]
  combination Emax: 1
IST-MES1 (Mesothelioma) [7]
  combination Emax: 0.938
[8]
  combination Emax: 0.905
[9]
  combination Emax: 0.854
[10]
  combination Emax: 0.964
[11]
  combination Emax: 0.887
[12]
  combination Emax: 0.809
[13]
  combination Emax: 0.777
[14]
  combination Emax: 0.61
SF539 (Glioblastoma)
  combination Emax: 0.886
[15]
  combination Emax: 0.259
SK-MEL-2 (Melanoma)
  combination Emax: 0.0969
[16]
  combination Emax: 0.763
[17]
  combination Emax: 0.838
[18]
  combination Emax: 0.841

## O=C(c1cc(Cc2n[nH]c(=O)c3ccccc23)ccc1F)N1CCN(C(=O)C2CC2)CC1 [Olaparib] + COc1nnc2ccc(N3CCC(c4ccc(OCCN5CCN(C)C(=O)[C@H]5C)cc4)CC3)nn12 [AZD5153] (first compound max 10 µM, 7x7, partner max 1 µM)
[1]
  Bliss excess: -0.0556
IST-MES1 (Mesothelioma) [2]
  Bliss excess: -0.117
[3]
  Bliss excess: -0.0518
[4]
  Bliss excess: 0.0101
[5]
  combination Emax: 0.69
[6]
  combination Emax: 0.762
IST-MES1 (Mesothelioma) [7]
  combination Emax: 0.611
[8]
  combination Emax: 0.96
[9]
  combination Emax: 0.409
[10]
  combination Emax: 1
[11]
  combination Emax: 0.196
[12]
  combination Emax: 0.182
[13]
  combination Emax: 0.429
[14]
  combination Emax: 0.522
SF539 (Glioblastoma)
  combination Emax: 0.642
[15]
  combination Emax: 0.3
SK-MEL-2 (Melanoma)
  combination Emax: 0.53
[16]
  combination Emax: 0.698
[17]
  combination Emax: 0.393
[18]
  combination Emax: 0.771

## CN(CCO)CC[C@H](CSc1ccccc1)Nc1ccc(S(=O)(=O)NC(=O)c2ccc(N3CCC([C@@H](O)c4ccccc4-c4ccc(Cl)cc4)CC3)cc2)cc1S(=O)(=O)C(F)(F)F [AZD4320] + CS(=O)(=O)CCNCc1ccc(-c2ccc3ncnc(Nc4ccc(OCc5cccc(F)c5)c(Cl)c4)c3c2)o1 [Lapatinib] (first compound max 1 µM, 7x7, partner max 10 µM)
[1]
  Bliss excess: 0.0444
IST-MES1 (Mesothelioma) [2]
  Bliss excess: 0.0367
[3]
  Bliss excess: -0.0108
[4]
  Bliss excess: -0.0121
[5]
  combination Emax: 0.911
[6]
  combination Emax: 0.985
IST-MES1 (Mesothelioma) [7]
  combination Emax: 0.892
[8]
  combination Emax: 1
[9]
  combination Emax: 0.2
[10]
  combination Emax: 0.938
[11]
  combination Emax: 0.907
[12]
  combination Emax: 0.912
[13]
  combination Emax: 0.267
[14]
  combination Emax: 0.901
SF539 (Glioblastoma)
  combination Emax: 0.575
[15]
  combination Emax: 0.969
SK-MEL-2 (Melanoma)
  combination Emax: 0.27
[16]
  combination Emax: 0.85
[17]
  combination Emax: 0.744
[18]
  combination Emax: 1

## O=C(c1cc(Cc2n[nH]c(=O)c3ccccc23)ccc1F)N1CCN(C(=O)C2CC2)CC1 [Olaparib] + CN(CC[C@H](CSC1=CC=CC=C1)NC2=C(C=C(C=C2)S(=O)(=O)NC(=O)C3=CC=C(C=C3)N4CCC(CC4)[C@H](C5=CC=CC=C5C6=CC=C(C=C6)Cl)O)S(=O)(=O)C(F)(F)F)CCO [AZD4320] (first compound max 10 µM, 7x7, partner max 1 µM)
[1]
  Bliss excess: -0.042
IST-MES1 (Mesothelioma) [2]
  Bliss excess: -0.107
[3]
  Bliss excess: -0.0525
[4]
  Bliss excess: -0.0407
[5]
  combination Emax: 0.16
[6]
  combination Emax: 0.268
IST-MES1 (Mesothelioma) [7]
  combination Emax: 0.211
[8]
  combination Emax: 0.994
[9]
  combination Emax: 0.164
[10]
  combination Emax: 0.337
[11]
  combination Emax: 0.266
[12]
  combination Emax: 0.138
[13]
  combination Emax: 0.21
[14]
  combination Emax: 0.17
SF539 (Glioblastoma)
  combination Emax: 0.463
[15]
  combination Emax: 0.315
SK-MEL-2 (Melanoma)
  combination Emax: 0.234
[16]
  combination Emax: 0.378
[17]
  combination Emax: 0.175
[18]
  combination Emax: 1

## N#Cc1cnc(Nc2cc(NC[C@H]3CNCCO3)c(C(F)(F)F)cn2)cn1 [SRA737] + Nc1ccn([C@@H]2O[C@H](CO)[C@@H](O)C2(F)F)c(=O)n1 [Gemcitabine] (first compound max 10 µM, 7x7, partner max 0.3 µM)
[1]
  Bliss excess: 0.0436
IST-MES1 (Mesothelioma) [2]
  Bliss excess: 0.0486
[3]
  Bliss excess: 0.0514
[4]
  Bliss excess: 0.118
[5]
  combination Emax: 0.799
[6]
  combination Emax: 1
IST-MES1 (Mesothelioma) [7]
  combination Emax: 0.857
[8]
  combination Emax: 0.948
[9]
  combination Emax: 0.761
[10]
  combination Emax: 0.911
[11]
  combination Emax: 0.729
[12]
  combination Emax: 0.6
[13]
  combination Emax: 0.853
[14]
  combination Emax: 0.688
SF539 (Glioblastoma)
  combination Emax: 0.947
[15]
  combination Emax: 0.907
SK-MEL-2 (Melanoma)
  combination Emax: 0.504
[16]
  combination Emax: 0.933
[17]
  combination Emax: 0.749
[18]
  combination Emax: 0.809

## O=C(c1cc(Cc2n[nH]c(=O)c3ccccc23)ccc1F)N1CCN(C(=O)C2CC2)CC1 [Olaparib] + CC1(C)CCC(CN2CCN(c3ccc(C(=O)NS(=O)(=O)c4ccc(NCC5CCOCC5)c([N+](=O)[O-])c4)c(Oc4cnc5[nH]ccc5c4)c3)CC2)=C(c2ccc(Cl)cc2)C1 [Venetoclax] (first compound max 10 µM, 7x7, partner max 1 µM)
[1]
  Bliss excess: -0.0329
IST-MES1 (Mesothelioma) [2]
  Bliss excess: -0.0432
[3]
  Bliss excess: -0.0354
[4]
  Bliss excess: -0.0305
[5]
  combination Emax: 0.0638
[6]
  combination Emax: 0.205
IST-MES1 (Mesothelioma) [7]
  combination Emax: 0.283
[8]
  combination Emax: 0.37
[9]
  combination Emax: 0.201
[10]
  combination Emax: 0.256
[11]
  combination Emax: 0.12
[12]
  combination Emax: 0.153
[13]
  combination Emax: 0.192
[14]
  combination Emax: 0.0674
SF539 (Glioblastoma)
  combination Emax: 0.358
[15]
  combination Emax: 0.258
SK-MEL-2 (Melanoma)
  combination Emax: 0.162
[16]
  combination Emax: 0.301
[17]
  combination Emax: 0.137
[18]
  combination Emax: 1
